{"source": "patent US20040018500A1", "about": "“Methods and systems for analyzing complex biological systems” (priority 2001, published 2004)", "tested_on": "Saccharomyces cerevisiae wild type strain BY4743", "assay": "AF1 metabolite analysis (GC-MS, LC-MS) of yeast treated with antifungal drugs", "type": "cell-based", "details": "for # Compounds perturbed: yeast, 2×MIC, two hours", "data": [{"smiles": "C[C@@H]1[C@H](O)[C@@H](C)/C=C/C=C/C=C/C=C/C=C/C=C/C=C/[C@H](O[C@@H]2O[C@H](C)[C@@H](O)[C@H](N)[C@@H]2O)C[C@@H]2O[C@](O)(C[C@@H](O)C[C@@H](O)[C@H](O)CC[C@@H](O)C[C@@H](O)CC(=O)O[C@H]1C)C[C@H](O)[C@H]2C(=O)O", "note": "[Amphoteracin B]", "values": [{"measurement": "Fold Change of TMS mevalonic acid lactone", "setting": "GC", "value": "−0.9767"}, {"measurement": "Fold Change of alanine", "setting": "GC", "value": "−0.7773"}, {"measurement": "Fold Change of asparagine", "setting": "GC", "value": "−1"}, {"measurement": "Fold Change of aspartic acid", "setting": "GC", "value": "−0.9743"}, {"measurement": "Fold Change of campesterol", "setting": "GC", "value": 0}, {"measurement": "Fold Change of desmosterol", "setting": "GC", "value": 0}, {"measurement": "Fold Change of disaccaride1", "setting": "GC", "value": "−1"}, {"measurement": "Fold Change of disaccaride2", "setting": "GC", "value": "−0.9977"}, {"measurement": "Fold Change of disaccaride3", "setting": "GC", "value": "−0.9977"}, {"measurement": "Fold Change of ergosterol", "setting": "GC", "value": 2.303}, {"measurement": "Fold Change of fucosterol", "setting": "GC", "value": "−0.6553"}, {"measurement": "Fold Change of glutamine", "setting": "GC", "value": "−0.9116"}, {"measurement": "Fold Change of glycanopyrose", "setting": "GC", "value": "−0.958"}, {"measurement": "Fold Change of glycerol", "setting": "GC", "value": "−0.815"}, {"measurement": "Fold Change of glycine", "setting": "GC", "value": 0.8807}, {"measurement": "Fold Change of hexadecanoic acid", "setting": "GC", "value": "−0.2427"}, {"measurement": "Fold Change of iso citric acid", "setting": "GC", "value": "−0.6183"}, {"measurement": "Fold Change of isoleucine", "setting": "GC", "value": "−0.9533"}, {"measurement": "Fold Change of lanosterol", "setting": "GC", "value": "−1"}, {"measurement": "Fold Change of leucine", "setting": "GC", "value": "−0.9443"}, {"measurement": "Fold Change of lysine", "setting": "GC", "value": "−0.3925"}, {"measurement": "Fold Change of malic acid", "setting": "GC", "value": "−0.963"}, {"measurement": "Fold Change of mevalonic acid lactone", "setting": "GC", "value": "−0.1276"}, {"measurement": "Fold Change of octadecanoic acid", "setting": "GC", "value": 0.21}, {"measurement": "Fold Change of oleic acid", "setting": "GC", "value": "−0.4593"}, {"measurement": "Fold Change of ornithine2", "setting": "GC", "value": "−1"}, {"measurement": "Fold Change of ornithine3", "setting": "GC", "value": "−0.9853"}, {"measurement": "Fold Change of palmiteliadic acid", "setting": "GC", "value": 0.515}, {"measurement": "Fold Change of phenylalanine", "setting": "GC", "value": "−0.9797"}, {"measurement": "Fold Change of phosphate", "setting": "GC", "value": "−0.007333"}, {"measurement": "Fold Change of pyrimidine", "setting": "GC", "value": "−0.185"}, {"measurement": "Fold Change of squalene", "setting": "GC", "value": "−0.5745"}, {"measurement": "Fold Change of tetradecanoic acid", "setting": "GC", "value": 0.07967}, {"measurement": "Fold Change of threonine2", "setting": "GC", "value": "−0.8553"}, {"measurement": "Fold Change of threonine3", "setting": "GC", "value": "−0.8933"}, {"measurement": "Fold Change of tms glutamine3", "setting": "GC", "value": "−0.8935"}, {"measurement": "Fold Change of tms lysine4", "setting": "GC", "value": "−0.9783"}, {"measurement": "Fold Change of tms tyrosine2", "setting": "GC", "value": "−0.3593"}, {"measurement": "Fold Change of tms tyrosine3", "setting": "GC", "value": "−0.9473"}, {"measurement": "Fold Change of valine", "setting": "GC", "value": "−0.8673"}, {"measurement": "Fold Change of abscisic acid", "setting": "LC", "value": 0}, {"measurement": "Fold Change of adenosine", "setting": "LC", "value": 0}, {"measurement": "Fold Change of glutamine/lysine", "setting": "LC", "value": 0.3981}, {"measurement": "Fold Change of guanosine", "setting": "LC", "value": 0.7598}, {"measurement": "Fold Change of riboflavin", "setting": "LC", "value": 0}, {"measurement": "Fold Change of serine", "setting": "LC", "value": 0.2011}, {"measurement": "Fold Change of tyrosine", "setting": "LC", "value": 0.2347}, {"measurement": "# Compounds perturbed", "setting": "P < 0.05", "value": 16}, {"measurement": "# Compounds perturbed", "setting": "P < 0.1", "value": 21}, {"measurement": "Fold Change of 2-ketobutyric acid", "setting": "nLC", "value": "−0.9992"}, {"measurement": "Fold Change of 2-ketoglutaric", "setting": "nLC", "value": 8.791}, {"measurement": "Fold Change of 3-indolylacetonitri", "setting": "nLC", "value": "−0.9998"}, {"measurement": "Fold Change of 4-methylcatechol", "setting": "nLC", "value": 0}, {"measurement": "Fold Change of 4aminobutyrate/dimg", "setting": "nLC", "value": "−0.1983"}, {"measurement": "Fold Change of 5hydroxyLtryptophan", "setting": "nLC", "value": 0}, {"measurement": "Fold Change of 6-benzylaminopurine", "setting": "nLC", "value": 0}, {"measurement": "Fold Change of DLaminoadipic acid", "setting": "nLC", "value": 1.411}, {"measurement": "Fold Change of NacetylDglucosamine", "setting": "nLC", "value": 0}, {"measurement": "Fold Change of NacetylLglutamate", "setting": "nLC", "value": "−0.1078"}, {"measurement": "Fold Change of NacetylLornithine", "setting": "nLC", "value": 0}, {"measurement": "Fold Change of abscisic acid", "setting": "nLC", "value": 0}, {"measurement": "Fold Change of aconitic acid", "setting": "nLC", "value": 0.5426}, {"measurement": "Fold Change of adenine", "setting": "nLC", "value": 0}, {"measurement": "Fold Change of adenosine", "setting": "nLC", "value": 0}, {"measurement": "Fold Change of alanine", "setting": "nLC", "value": 0.1599}, {"measurement": "Fold Change of allantoic acid", "setting": "nLC", "value": "−0.1456"}, {"measurement": "Fold Change of allantoin", "setting": "nLC", "value": 3.97}, {"measurement": "Fold Change of anthranilic acid", "setting": "nLC", "value": 0}, {"measurement": "Fold Change of arginine", "setting": "nLC", "value": "−0.4885"}, {"measurement": "Fold Change of argininosuccinate", "setting": "nLC", "value": 0}, {"measurement": "Fold Change of asparagine", "setting": "nLC", "value": 0.1511}, {"measurement": "Fold Change of aspartic", "setting": "nLC", "value": 0.2407}, {"measurement": "Fold Change of benzoic acid", "setting": "nLC", "value": 0}, {"measurement": "Fold Change of biotin", "setting": "nLC", "value": 1.077}, {"measurement": "Fold Change of caffeic acid", "setting": "nLC", "value": "−0.5882"}, {"measurement": "Fold Change of catechol", "setting": "nLC", "value": 0}, {"measurement": "Fold Change of cinnamic acid", "setting": "nLC", "value": 0}, {"measurement": "Fold Change of citricanoic/itaconi", "setting": "nLC", "value": 0}, {"measurement": "Fold Change of citrulline", "setting": "nLC", "value": 1659}, {"measurement": "Fold Change of coumaric acid", "setting": "nLC", "value": 0}, {"measurement": "Fold Change of cytidine", "setting": "nLC", "value": "−0.9986"}, {"measurement": "Fold Change of cytosine", "setting": "nLC", "value": 0}, {"measurement": "Fold Change of decanoic acid", "setting": "nLC", "value": "−0.08716"}, {"measurement": "Fold Change of diaminopimelic acid", "setting": "nLC", "value": 0}, {"measurement": "Fold Change of dihydrofolic acid", "setting": "nLC", "value": 0}, {"measurement": "Fold Change of estrone", "setting": "nLC", "value": 0}, {"measurement": "Fold Change of farnesol", "setting": "nLC", "value": 0}, {"measurement": "Fold Change of folic acid", "setting": "nLC", "value": 0}, {"measurement": "Fold Change of fumaric/3m2oxobutan", "setting": "nLC", "value": 0.4423}, {"measurement": "Fold Change of gallic acid", "setting": "nLC", "value": 0.1622}, {"measurement": "Fold Change of gibberellic", "setting": "nLC", "value": 0}, {"measurement": "Fold Change of giutamine/lysine", "setting": "nLC", "value": 0.07919}, {"measurement": "Fold Change of glucosamine6PO4", "setting": "nLC", "value": "−0.9951"}, {"measurement": "Fold Change of glutamic/acetylseri", "setting": "nLC", "value": 0.1414}, {"measurement": "Fold Change of guanine", "setting": "nLC", "value": 0}, {"measurement": "Fold Change of guanosine", "setting": "nLC", "value": 1.131}, {"measurement": "Fold Change of histidine", "setting": "nLC", "value": 0}, {"measurement": "Fold Change of homogentisic/uric", "setting": "nLC", "value": 0}, {"measurement": "Fold Change of hydrocortisone", "setting": "nLC", "value": 0}, {"measurement": "Fold Change of hypoxanthine", "setting": "nLC", "value": 0.1655}, {"measurement": "Fold Change of indole3pyruvic acid", "setting": "nLC", "value": 0}, {"measurement": "Fold Change of inostol/glucos/sorb", "setting": "nLC", "value": "−0.5905"}, {"measurement": "Fold Change of isocitric/citric/qu", "setting": "nLC", "value": 2.549}, {"measurement": "Fold Change of jasmonic acid", "setting": "nLC", "value": 0}]}]}
